Data as given in BigSolDB 2.1.

O=C(NC(=O)c1c(F)cccc1F)Nc1cc(Cl)c(F)c(Cl)c1F
solubility (mole fraction)
Settings | 278.15 K | 283.15 K | 288.15 K | 293.15 K | 298.15 K | 303.15 K | 308.15 K | 313.15 K | 318.15 K | 323.15 K
in DMF | 0.174 | 0.186 | 0.2 | 0.213 | 0.228 | 0.243 | 0.26 | 0.275 | 0.292 | 0.308
in ethanol | 0.0485 | 0.0515 | 0.0549 | 0.0582 | 0.0614 | 0.0647 | 0.0676 | 0.0708 | 0.0744 | 0.0782
in methanol | 0.0672 | 0.0729 | 0.0792 | 0.0854 | 0.0925 | 0.1 | 0.108 | 0.116 | 0.124 | 0.133
in propylene glycol | 0.0199 | 0.0212 | 0.0227 | 0.0241 | 0.0255 | 0.0269 | 0.0282 | 0.0296 | 0.0311 | 0.0327
in water | 6.82e-06 | 7.49e-06 | 8.19e-06 | 8.88e-06 | 9.72e-06 | 1.07e-05 | 1.17e-05 | 1.26e-05 | 1.36e-05 | 1.47e-05
